Assays:
mice [1] = details: intracerebroventricular (i.c.v); cited from earlier work
[2] = Stability of biphalin during pre-incubation under physiological-like conditions; assay type: physicochemical; details: 72 hour incubation in assay buffer, pH 7.5 at 37° C.
mice [3] = details: intrathecally (i.t.); cited from earlier work
human δ opioid receptor = target: T1, human δ opioid receptor (Homo sapiens, UniProt P41143); assay: Radioligand competition binding assay, δ opioid receptor ([3H]DPDPE); details: 1 μM; pre-incubated 20 hours
T1 construct: expressed in transfected cells
T1 sequence (P41143 whole entry): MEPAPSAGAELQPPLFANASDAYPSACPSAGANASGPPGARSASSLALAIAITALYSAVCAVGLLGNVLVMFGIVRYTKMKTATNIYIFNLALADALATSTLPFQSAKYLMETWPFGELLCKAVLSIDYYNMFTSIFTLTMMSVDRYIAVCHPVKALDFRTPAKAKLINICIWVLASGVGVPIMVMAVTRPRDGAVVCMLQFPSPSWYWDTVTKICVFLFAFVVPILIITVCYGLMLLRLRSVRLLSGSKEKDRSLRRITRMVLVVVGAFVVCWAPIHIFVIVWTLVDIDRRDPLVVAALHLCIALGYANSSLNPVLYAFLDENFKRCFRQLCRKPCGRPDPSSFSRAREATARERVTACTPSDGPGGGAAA
Description: Competition binding experiments were conducted by incubating membrane protein to equilibrium in triplicate in the presence of a fixed concentration of radioligand and increasing concentrations (0.1 nM to 10 μM) of test compound in 100 μL final volume. The radioligands used were specific for each receptor type, and the assay conditions are described in Table BIP6.3. Following incubations, the membranes were rapidly filtered through GF/B filter plate (presoaked with 0.5% polyethyleneimine), washed four times with cold 50 mM Tris-HCl, pH 7.5, and the bound radioactivity was then measured. Non-specific binding was measured in the presence of excess naloxone (100 μM); this value was subtracted from the total binding to yield the specific binding at each test concentration.
The test compounds were stored under acidic condition to stabilize the PEG conjugation.
Ki (affinity of test compound) was obtained using the Cheng Prusoff correction using experimental Kd (affinity of radioligand) values that were previously determined under these assay conditions.

[4] = Stability of the conjugate during purification; assay type: physicochemical; details: reaction mixture, acidic pH values

C[C@@H](NC(=O)[C@@H](N)Cc1ccc(O)cc1)C(=O)NCC(=O)N[C@@H](Cc1ccccc1)C(=O)NNC(=O)[C@H](Cc1ccccc1)NC(=O)CNC(=O)[C@@H](C)NC(=O)[C@@H](N)Cc1ccc(O)cc1 [Biphalin, Tyr-D-Ala-Gly-Phe-NH-NH-Phe-Gly-D-Ala-Tyr]
potency in eliciting antinociception compared with morphine (mice [1]): 257 fold | stability following incubation [2]: remained stable | potency compared with morphine, tail flick testing (mice [3]): 1000 fold

Di-mPEG-SBC-30K-biphalin: releasable di-conjugate of biphalin with N-m-PEG-Benzamide-p-Succinimidyl Carbonate (m-PEG-SBC-30K); not purified
inhibition of specific binding at the highest test concentration (human δ opioid receptor): ≤ 50% | stability of the conjugate [4]: instability of the conjugate, even at acidic pH values
